Assay in all cases: Method of dilutions in liquid medium (M.I.C.)
Assay type in all cases: cell-based
What all share (details): reading after 24 hours, 37° C.

In assay [1] the test system is E. faecalis 02D2UC1. As to the method:
(§1) A—Method of Dilutions in Liquid Medium A series of tubesis prepared in which the same quantity of nutritive sterile medium is distributed. Increasing quantities of the product to be studied are distributed into each tube, then each tube is sown with a bacterial strain. After incubation for twenty-four hours in a heating chamber at 37° C., the growth inhibition is evaluated by transillumination, which allows the minimal inhibitory concentrations (M.I.C.) to be determined, expressed in micrograms/cm^3. The following results were obtained with the product of the example: (reading after 24 hours)

The test system of assay [2] is E. faecium 02D3HT1. Here is the method:
as §1

The subject of assay [3] is S. agalactiae 02B1HT1. Here is the method:
as §1

Assay [4] relates to S. agalactiae 02B1SJ1c. As to the method:
as §1

Assay [5] deals with S. aureus 011UC4. As to the method:
as §1

In assay [6] the test system is S. mitis 02MitCB1. Here is the method: as §1
Assay [7] relates to S. mitis 02MitGR16i. Here is the method:
as §1

The subject of assay [8] is S. pneumoniae 030GR20. As to the method:
as §1

The test system of assay [9] is S. pneumoniae 030PW23c. As to the method:
as §1

Assay [10] relates to S. pneumoniae 030RO1i. Here is the method: as §1
Assay [11] relates to S. pneumoniae 030SJ5i. Here is the method:
as §1

Assay [12] relates to S. pneumoniae 032UC1. Here is the method:
as §1

For assay [13], the system named is Streptococcus gr;G 02GOGR5. As to the method:
as §1

Consider “3-de[2,6-dideoxy-3-C-methyl-3-0-methyl-alpha-L-ribo-hexopyranosyl)-oxy]-3-oxo-12,11-[oxycarbonyl[[4-[4-(3-pyridinyl)-1H-imidazol-1-yl]-butyl]-imino]]-6,11,12-trideoxy-erythromycin [product of the example]”, for which the “minimal inhibitory concentrations (M.I.C.)” value in [1] was 0.080 micrograms/cm^3; in [2] it was 0.040 micrograms/cm^3; in assay [3], “<+0.02 micrograms/cm^3”; in [4], 2.500 micrograms/cm^3; in [5], 0.300 micrograms/cm^3; in assay [6], 0.040 micrograms/cm^3. For the same substance, the “minimal inhibitory concentrations (M.I.C.)” value is given as 0.300 micrograms/cm^3 in assay [7]; 0.600 micrograms/cm^3 in assay [8]; 0.300 micrograms/cm^3 in assay [9]; 0.600 micrograms/cm^3 in assay [10]; 0.600 micrograms/cm^3 in [11]; “<=0.02 micrograms/cm^3” in assay [12]. Also, the “minimal inhibitory concentrations (M.I.C.)” value in assay [13] came to 0.040 micrograms/cm^3.

These data come from patent US6706692B1, “6-deoxy erythromycin derivatives, method for preparing same and use as medicines” (Aventis Pharma S.A., priority 1998, dated 2004).
